Patent US20040138241A1, “Novel use of arylethenesulfonamide derivative” (priority 2001, published 2004)
Where a name gives a salt, the structure may show the parent alone. Read-outs that look alike come from different tables or passages of the source. Values belong to the molecule of their own block, whether it stands above or below them.

Columns and labels:
[1] = system: prostatic urethral pressure in anesthetized dogs; format: in vivo, dog; conditions: for EC50 value of increase of PUP, reduced into molar concentration: i.a. local administration, mean±standard error
Method: After waiting for stabilization of hemodynamics following the operation, the balloon was fixed to the prostatic urethra and expanded, and a prostatic urethral pressure (PUP) was measured from a change in pressure within the balloon.
ET-1 (from 0.006 to 0.8 μg/kg i.a., molar concentration: from 0.0025 to 0.321 nmol/kg i.a.) and phenylephrine hydrochloride (from 0.06 to 8 μg/kg i.a.; molar concentration: from 0.307 to 39.3 nmol/kg i.a.) were locally administered, thereby comparing the dose-response curve of an increasing action of PUP by the drugs.
In the experiments, dogs in which a degree of increase of PUP was observed 40 cmH2O or more in the pre-contraction with phenylephrine hydrochloride (8 μg/kg i.a.) were used.

[2] = system: urethral pressure in anesthetized dogs
Excerpt: Male beagle dogs (body weight: from 8 to 13 kg) were subjected to artificial ventilation under the anesthesia with pentobarbital, a catheter was inserted into a left femoral artery for measurement of blood pressure and heart rate and a left femoral vein for administration of drug. A catheter for measurement of urethral pressure (from 8 to 10Fr, 2 holes, manufactured by Create Medic Co., Ltd.) was inserted from an external urethral meatus toward urinary bladder. An automatic syringe pump was connected with one end of the catheter, and a pressure transducer was connected with the other end thereof. […] At the same time, by drawing out the catheter from the urinary bladder into the external urethral meatus at a rate of 25 mm/min by an automatic drawing unit, the pressure was measured and recorded throughout urethra as a urethral pressure profile (UPP) as shown in FIG. 6.
In the blood pressure-response by ET-1 since the pressure increased after a transient reduction of pressure, measurement of the urethral pressure was started about 3 minutes after the administration. On the other hand, as phenylephrine hydrochloride caused an increase of pressure immediately after the administration, measurement of the urethral pressure was started immediately after the administration.
Three minutes after the administration, ET-1 (1 μg/kg) was again intravenously administered, and an action against the urethral pressure was studied similarly to the time of single administration.

[3] = system: urethral pressure in anesthetized dogs; assay: ET-1 induced increase of urethral pressure in the presence of α1 receptor blocker in anesthetized dog; format: in vivo; conditions: tamsulosin hydrochloride 10 μg/kg i.v.
Method: A urethral pressure profile (UPP) was recorded according to the same operation method as in Test Example 3 .
Thirty minutes thereafter, the same amount of tamsulosin hydrochloride (10 μg/kg i.v.) was again intravenously administered.

[4] = system: isolated rabbit prostate, urethra and bladder base preparations; assay: Concentration-response of agonists in isolated rabbit lower urinary tract preparations; format: biochemical; conditions: cumulative addition
Method: Male Japanese white rabbits (from 3 to 5 kg, available from Kitayama Labes Co., Ltd.) were provided for experiments. Prostate, urethra and bladder were isolated from the rabbit to prepare ring preparations of smooth muscle. With respect to the bladder, a dorsal region of the bladder base was used as preparation. Each of the preparations was suspended in an organ bath filled with a Krebs-Henselit solution at 37 ° C., into which was then aerated a 95% O2-5% CO2 gas. A resting tension was subjected as 1g, and a tension change was isometrically measured. Incidentally, the organ bath for preventing adsorption of ET-1 was previously subjected to silicon treatment. After elapse of an equilibrium period for 60 minutes, the preparation was contracted twice by 10 μM phenylephrine hydrochloride to be stabilized the responsibility, and a main experiment was started.
ET-1 (from 0.1 to 1,000 nM), phenylephrine hydrochloride (from 0.01 to 100 μM), S6c (from 1 to 1,000 nM), or acetylcholine (from 0.01 to 1,000 μM) was cumulatively added to the organ bath to obtain a concentration-response curve. […] The contraction response to each agonists was expressed while defining the contraction by phenylephrine hydrochloride (10 μM) as obtained immediately therebefore as 100%.

[5] = ET-1 1 μg/kg i.v., phenylephrine hydrochloride 30 μg/kg i.v.

Molecule: CC[C@H](C)[C@H](NC(=O)[C@H](CC(=O)O)NC(=O)[C@H](CC(C)C)NC(=O)[C@H](Cc1cnc[nH]1)NC(=O)[C@@H]1CSSC[C@H](N)C(=O)N[C@@H](CO)C(=O)N[C@H]2CSSC[C@H](NC(=O)[C@H](CCC(=O)O)NC(=O)[C@H](CCCCN)NC(=O)[C@H](CC(=O)O)NC(=O)[C@H](CCSC)NC(=O)[C@H](CC(C)C)NC(=O)[C@H](CO)NC(=O)[C@H](CO)NC2=O)C(=O)N[C@@H](C(C)C)C(=O)N[C@@H](Cc2ccc(O)cc2)C(=O)N[C@@H](Cc2ccccc2)C(=O)N1)C(=O)N[C@H](C(=O)N[C@@H](Cc1c[nH]c2ccccc12)C(=O)O)[C@@H](C)CC [ET-1]
- duration of increase response of PUP relative to phenylephrine hydrochloride ([1]; ET-1 0.4 μg/kg i.a. vs phenylephrine hydrochloride 2 μg/kg i.a., typical example): about 3 times
- concentration for increasing action of prostatic urethral pressure, times lower than phenylephrine hydrochloride ([1]; anesthetized dog, i.a.): about 100 times
- maximum response of PUP, of that of phenylephrine hydrochloride ([1]; anesthetized dog, i.a.): 43.9 ±5.2%
- EC50 value of increase of PUP, reduced into molar concentration ([1]; anesthetized dog): 0.08 ± 0.03 nmol/kg
- action on urethral pressure (UPP) [2, 5]: remarkable increase of the pressure throughout urethra other than prostate in addition to an increase of the urethral pressure of prostate
- action on mean blood pressure ([2]; dog, in vivo, iv): without substantially affecting the mean blood pressure
- action on urethral pressure in the presence of tamsulosin hydrochloride ([3]; ET-1 1 μg/kg i.v.): increased the urethral pressure of the whole of lower urinary tract including prostate

- EC50 value of increase of PUP, reduced into molar concentration ([1]; anesthetized dog): 7.47 ± 2.82 nmol/kg
Molecule: CNC[C@H](O)c1cccc(O)c1 [phenylephrine hydrochloride]
- degree of increase of PUP relative to ET-1 ([1]; phenylephrine hydrochloride 2 μg/kg i.a. vs ET-1 0.4 μg/kg i.a., typical example): higher about twice
- action on mean blood pressure [2, 5]: increase of mean blood pressure
- action on urethral pressure (UPP) [2, 5]: remarkable increase of the urethral pressure of prostate

Molecule: CCOc1ccccc1OCCN[C@H](C)Cc1ccc(OC)c(S(N)(=O)=O)c1 [tamsulosin hydrochloride]
- action on prostatic urethral pressure ([3]; anesthetized dogs): reduced the prostatic urethral pressure

Molecule: sarafotoxin S6c [Compound S6c]
- contraction of isolated preparations (in words) [4]: not substantially observed
